The record followed here is paper PMC12040169 (PLOS Biology, 2025).

In general, viability refers to a read-out of living cells in per cent, often relative to untreated cells.

This series in a line: in vitro. Conditions: human, hela cells, % viability.
As to `O=C(NC1(c2ccccc2)CC1)c1ccc(-n2cnnc2)cc1` [CBK282778], the viability at 28.5 h, 10 µM turned out to be 111%.
`CC(C)c1c(SCCN)[nH]c2ccccc12` [CBK017265C]: the viability at 28.5 h, 10 µM worked out at 96%.
On to `Cc1noc(C)c1NC(=O)CCc1cccnc1` [CBK200392], for which the viability at 28.5 h, 10 µM was determined as 99.6%.
Then `Oc1cccc(-c2nccnc2NCc2cccs2)c1` [CBK037343], with 88.8%.
For `CCn1nc(C)c(-c2cncn2CCn2nc(C)c(Cl)c2C)c1C` [CBK281768] the value was 90.4%; for `C/C(=N/O)c1ccc(OCCCOc2ccc(/C(C)=N/O)cc2)cc1` [CBK262075], 95.2%; for `O=C(CN1C(=O)C2CCC(c3ccccc3)CC2C1=O)Nc1cccc2ccccc12` (stereo not shown) [CBK268061], 86%.
For `O=C(CSc1ncnc2c1oc1ccccc12)NCc1ccccc1` [CBK287397] the value was 101%; for `Cc1cn(C[C@H](NC(=O)c2cccc(F)c2)C(=O)O)c(=O)[nH]c1=O` [CBK289667], 109%.
For the molecule `O=C1c2cccc3cccc(c23)C(=O)N1CC1CCN(CC(O)COCc2ccccc2)CC1` (stereo not shown) [CBK074407C], the viability at 28.5 h, 10 µM came to 84.4%.
Regarding `Cc1ccc(NC(=S)NCCNc2ccccn2)cc1Cl` [CBK297544], the viability at 28.5 h, 10 µM was determined as 105%.
For `CC(=O)Nc1ccc(-c2csc(N3CCN(C)CC3)n2)cc1` [CBK305865] the value was 93.6%.
For `CN(C)CCN(C)c1cncc(-c2ccc3c(c2)OCO3)n1` [CBK065897] the value was 101%; for `O=C(N/N=C/c1ccc(-c2ccc([N+](=O)[O-])cc2)o1)c1cccnc1` [CBK262287], 92.3%; for `O=C(CSc1nnc(CN2CCOCC2)n1-c1ccccc1)N1CCc2ccccc21` [CBK266733], 92.7%.
Turning to `O=C(Nc1ccccc1N1CCCNCC1)c1ccnc2ccccc12` [CBK036325T], the viability at 28.5 h, 10 µM was 83.4%.
In the case of `CCC(CC)c1cc([C@H]2CN3CC[C@H]2C[C@@H]3CO)nc(-c2ccncc2)n1` [CBK289118], the viability at 28.5 h, 10 µM worked out at 100%.
For `CCCNc1nc(-c2ccc(C)c(C)c2)cn2ccnc12` [CBK066627] the value was 101%.
Regarding `COCCn1c(C)cc(C(=O)CSc2cc(C)c3ccccc3n2)c1C` [CBK266437], the viability at 28.5 h, 10 µM is 70.3%.
On to `Cc1cc(C2CCCCCN2S(=O)(=O)c2ccc3[nH]c(=O)[nH]c(=O)c3c2)on1` (stereo not shown) [CBK286405], for which the viability at 28.5 h, 10 µM was 93.6%.
For the molecule `COc1ccc([C@@]23CC[C@@H](NC(=O)Nc4ccc(Cl)c(C(F)(F)F)c4)C[C@@H]2N(C)CC3)cc1OC` [CBK038224C], the viability at 28.5 h, 10 µM amounted to 98.4%.
For `CCc1nc(CC(=O)N2CCOC(c3ccc(F)cc3)C2)cs1` (stereo not shown) [CBK304083] the value was 87%; for `Cc1cccn2c(CN(C)C(C)C(N)=O)c(C(=O)N3CCOCC3)nc12` (stereo not shown) [CBK306592], 105%.
For `NS(=O)(=O)c1ccc(S(=O)(=O)N2CCN(C/C=C/c3ccccc3)CC2)cc1` [CBK266723C] the value was 95.8%; for `CCC(C)C(=O)O[C@H]1C[C@@H](C)C=C2C=C[C@H](C)[C@H](CC[C@@H]3C[C@@H](O)CC(=O)O3)[C@H]21` (stereo partly shown) [CBK011646], 85.2%.
For `Cc1ccc(S(=O)(=O)NC[C@H]2O[C@@H](CC(=O)N3CCCC3)[C@H](O)[C@@H]2O)cc1` [CBK288910] the value was 112%; for `Cc1ccc(C(=O)Nc2ccccc2C(=O)NC(C)C(=O)O)cc1` (stereo not shown) [CBK263540], 93.9%; for `CC(=O)Oc1ccc(C(=O)Nc2ccc3c(c2)C(=O)N(CCC(=O)O)C3=O)cc1` [CBK265997], 105%.
Regarding `CCOc1ccc2nc(NS(=O)(=O)c3cccc(C(=O)O)c3)sc2c1` [CBK161137], the viability at 28.5 h, 10 µM is 102%.
As to `Cc1ccc(S(=O)(=O)NNC(=O)COc2cccc3cccnc23)cc1` [CBK268788], the viability at 28.5 h, 10 µM worked out at 90.1%.
Then `O=C1CCCC2=C1C(c1ccc(OCc3ccccc3)cc1)c1c([nH][nH]c1=O)N2` (stereo not shown) [CBK288149], with 92.1%.
Then `CS(=O)(=O)N(Cc1ccc(Cl)cc1)c1ccc(C(=O)Nc2cccnc2)cc1` [CBK263334], with 95.3%.
Then `COc1ccccc1OCCCN1C(=O)C2(CC(=O)N(C)C2=O)c2cc(F)ccc21` (stereo not shown) [CBK075430], with 88.2%; and `COC(=O)c1cccc(C(=O)Nc2ncc(-c3ccccc3)s2)c1` [CBK298294], with 89.7%.
As for `COc1cc(OC)cc(C(=O)OCc2ccc(F)cc2)c1` [CBK267996], the viability at 28.5 h, 10 µM turned out to be 95.6%.
Then `Cc1sc2nc(SCc3nc4ccccc4[nH]3)n(-c3ccc(Cl)c(Cl)c3)c(=O)c2c1C` [CBK264594], with 102%.
Then `CN1CCC2(CC1)CN(C(=O)C1CC1)Cc1ccccc1O2` [CBK284967], with 102%; and `CN1CCCc2c1nc1ccc(Br)cc1c2N` [CBK009692G], with 58.9%; and `COc1c(C)cc(Br)cc1C(=O)NC(=S)Nc1ccccc1N1CCN(C)CC1` [CBK267855C], with 97.1%.
Then `COCc1cc(CC2(NCc3ccc(NC(C)=O)cc3)COC2)no1` [CBK289701], with 110%.
In the case of `CC(=O)Nc1ccc(N2CCN(CCO)CC2)cc1OCCCOc1ccccc1` [CBK074317T], the viability at 28.5 h, 10 µM is 110%.
Turning to `Cc1cccn2c(CN3CC(O)C3)c(C(=O)N3CCCCC3)nc12` [CBK306662], the viability at 28.5 h, 10 µM stood at 88.3%.
For `O=C(NCCCc1ccccn1)C1(c2ccccc2F)CC1` [CBK283155] the value was 93.6%; for `CC(O)(c1ccncc1)c1nccs1` (stereo not shown) [CBK281504], 90.1%; for `CCCC(=O)c1ccc(S(=O)(=O)N2CCCN(Cc3c[nH]nc3-c3ccc(F)cc3)CC2)cc1` [CBK062911], 121%.
`CCN(Cc1ccccc1)C1CCN(Cc2cccc(OC)c2)CC1` [CBK264654G]: the viability at 28.5 h, 10 µM amounted to 99.2%.
Regarding `Cc1nc(C(=O)NCC2CN3CCCN2CC3)ccc1C(=O)O` (stereo not shown) [CBK304242], the viability at 28.5 h, 10 µM worked out at 94%.
Turning to `COC(=O)c1cc(C(=O)CSc2nc(N)cc(O)n2)ccc1O` [CBK110407], the viability at 28.5 h, 10 µM is 92.2%.
As for `CCCCNc1cc(C)nc2c(-c3ccccc3)cnn12` [CBK287792], the viability at 28.5 h, 10 µM is 92.1%.
Turning to `Cc1ccnn1CCC(=O)N1CCCC1c1nc2ccccc2[nH]1` (stereo not shown) [CBK285178], the viability at 28.5 h, 10 µM was 110%.
For `O=C(O)CCc1ccc(-c2cn3ccnc3c(Nc3ccc(Br)cc3)n2)cc1` [CBK038058] the value was 113%.
Regarding `O=C(Nc1ccc(Cl)cc1)N1CCCCC1CO` (stereo not shown) [CBK156179], the viability at 28.5 h, 10 µM worked out at 99.5%.
With `CC1CN(c2cc(CNc3nc4ccccn4c3C#N)ccn2)CCO1` (stereo not shown) [CBK306423], the viability at 28.5 h, 10 µM worked out at 78.7%.
Consider `O=C(O)CCC(=O)Nc1ccccc1C(=O)Nc1ccccc1` [CBK058571], for which the viability at 28.5 h, 10 µM came to 92.4%.
On to `COc1ccc(C2=C(Nc3ccc(C(=O)NCc4cccnc4)cc3)c3ccccc3C2=O)cc1` [CBK263809], for which the viability at 28.5 h, 10 µM is 89.1%.
For `O=C(O)/C=C/C(=O)NNC(=O)c1ccccc1Br` [CBK261786] the value was 111%; for `O=C(Nc1ccc2nc(-c3ccco3)c(-c3ccco3)nc2c1)N1CCCCCC1` [CBK267253], 85.4%; for `COc1cc(C2N(Cc3ccccc3)CCCN2Cc2ccccc2)c([N+](=O)[O-])cc1OC` [CBK265224], 88.2%.
For `Cc1ccc(CSc2cnc(C(C)(C)C)nc2)cc1` [CBK019832] the value was 112%; for `COc1ccc(NS(=O)(=O)c2cc(C(=O)O)cc(C)c2C)cc1OC` [CBK295148], 82.9%.
As to `COc1ccc(-c2c[nH]c([C@@H]3COCCN3Cc3ccc(C(=O)O)cc3)n2)cc1` [CBK289305], the viability at 28.5 h, 10 µM worked out at 84.1%.
For `NC(=O)CS(=O)(=O)c1ccc(Cl)cc1` [CBK026373], the viability at 28.5 h, 10 µM came out at 95.7%.
Then `O=C(NC1(c2ccccc2)CC1)c1cc(-n2cnnc2)ccc1Cl` [CBK282777], with 97.2%; and `CCOC(=O)c1c(NC(=O)CC2Sc3ccccc3NC2=O)sc(C)c1C` (stereo not shown) [CBK263349], with 93.5%; and `O=C(c1cccs1)N1CCC(c2onc3c2CCCC3)CC1` [CBK285181], with 93.3%.
Regarding `Cn1ccc(C2=C(N)C(C#N)C3=C(CC(C)(C)CC3=O)O2)c1` (stereo not shown) [CBK022168], the viability at 28.5 h, 10 µM was 109%.
For `CC1NCCc2c1sc1ccccc21` (stereo not shown) [CBK026032C] the value was 100%; for `O=C1/C(=N\O)c2cc(Cl)ccc2N1Cc1ccccc1` [CBK288468], 91.5%.
For `CCOC(=O)Cc1nnc(-c2cccc(C(F)(F)F)c2)[nH]1` [CBK304385] the value was 81.1%; for `CC(=O)c1cc2c(N)c(/C(N)=N/C#N)sc2nc1C` [CBK021202], 70.7%.
Regarding `O=C(Cn1c(-c2cccs2)cc2cccnc21)N1CCCCC1` [CBK282619], the viability at 28.5 h, 10 µM was 98.1%.
`Cc1ccc(NC(=O)N2CCc3ccccc3C2)cc1` [CBK155309]: the viability at 28.5 h, 10 µM stood at 93.6%.
Consider `Clc1ccc(-c2noc(-c3ccco3)n2)cc1` [CBK026405], for which the viability at 28.5 h, 10 µM was found to be 86%.
Consider `Cc1noc(C2COCCN2C(=O)c2cc(Cl)cn2C)n1` (stereo not shown) [CBK305120], for which the viability at 28.5 h, 10 µM turned out to be 98.8%.
Then `CNC(=O)N1CCN(CCOC(c2ccc(F)cc2)c2ccc(F)cc2)CC1` [CBK024948C], with 87.3%; and `O=C(CN1C(=O)CCC1=O)NCCc1ccccc1` [CBK262326], with 98.3%; and `CN1CCN(C(=O)c2c(NS(=O)(=O)c3cc(F)c(Br)cc3F)sc3c2CCCC3)CC1` [CBK050419], with 90.5%.
For `COc1cc2c(c(OC)c1OC)CC(=O)NC21CCN(C(=O)NC(C)(C)C)CC1` [CBK047301] the value was 94.2%; for `c1ccc(CCN2CCCN(c3ccnc(OCCN4CCOCC4)n3)CC2)cc1` [CBK083810], 89.3%.
